Measurements taken from PMC4627239, “Discovery of new small molecules inhibiting 67 kDa laminin receptor interaction with laminin and cancer cell invasion” (Oncotarget, 2015).

Assays:
[1] = target: T1, 37 kDa laminin receptor precursor (37LRP/67LR) (Homo sapiens, UniProt P08865); experiment: ELISA-type inhibition of r37LRP binding to immobilized laminin at […]; type: biochemical
T1 construct: gene RPSA

[2] = target: T1, 37 kDa laminin receptor precursor (37LRP/67LR); experiment: ELISA-type inhibition of r37LRP binding to immobilized laminin (and YIGSR)

IC50 [2]	Structure (SMILES)	ELISA-type inhibition of r37LRP binding to immobilized laminin at 50 μM [1]
–	Oc1ccc2ccccc2c1CN(Cc1c(O)ccc2ccccc12)c1ccccc1 [compound 60, 1-((((2-hydroxy-1-naphthyl)methyl)anilino)methyl)-2-naphthol]	NSC47923, NSC48478, NSC48861 and NSC48869 were active to the same extent as NSC47924, by in vitro binding assays
–	Cc1ccc(NCc2c(O)ccc3ccccc23)cc1 [compound 50, 1-(4-toluidinomethyl)-2-naphthol]	NSC47923, NSC48478, NSC48861 and NSC48869 were active to the same extent as NSC47924, by in vitro binding assays
58.9 µM	COc1ccc(NCc2c(O)ccc3ccccc23)cc1 [compound 13, 1-((4-methoxyanilino)methyl)-2-naphthol]	–
–	Cc1ccc(N(Cc2c(O)ccc3ccccc23)Cc2c(O)ccc3ccccc23)cc1 [compound 61, 1-((((2-hydroxy-1-naphthyl)methyl)-4-methylanilino)methyl)-2-naphthol]	NSC47923, NSC48478, NSC48861 and NSC48869 were active to the same extent as NSC47924, by in vitro binding assays
–	Oc1ccc2ccccc2c1CNc1ccc(Cl)cc1 [compound 52, 1-((4-chloroanilino)methyl)-2-naphthol]	NSC47923, NSC48478, NSC48861 and NSC48869 were active to the same extent as NSC47924, by in vitro binding assays
